Measurements taken from paper PMC4822341 (Cell Discovery, 2015).
Several values for one entry are separate records, joined by “and”; a condition that tells them apart may be missing. Equal entries are not always repeated.

Columns and labels:
PR = molecular target: T1, PR (Homo sapiens, UniProt P06401); experiment: PR reporter assay (off-target activity); type: cell-based; conditions: steroid 1 μM; percent of 1 μM progesterone
T1 construct: expressed in transfected cells; host or cells: AD293
T1 sequence (P06401 1-933): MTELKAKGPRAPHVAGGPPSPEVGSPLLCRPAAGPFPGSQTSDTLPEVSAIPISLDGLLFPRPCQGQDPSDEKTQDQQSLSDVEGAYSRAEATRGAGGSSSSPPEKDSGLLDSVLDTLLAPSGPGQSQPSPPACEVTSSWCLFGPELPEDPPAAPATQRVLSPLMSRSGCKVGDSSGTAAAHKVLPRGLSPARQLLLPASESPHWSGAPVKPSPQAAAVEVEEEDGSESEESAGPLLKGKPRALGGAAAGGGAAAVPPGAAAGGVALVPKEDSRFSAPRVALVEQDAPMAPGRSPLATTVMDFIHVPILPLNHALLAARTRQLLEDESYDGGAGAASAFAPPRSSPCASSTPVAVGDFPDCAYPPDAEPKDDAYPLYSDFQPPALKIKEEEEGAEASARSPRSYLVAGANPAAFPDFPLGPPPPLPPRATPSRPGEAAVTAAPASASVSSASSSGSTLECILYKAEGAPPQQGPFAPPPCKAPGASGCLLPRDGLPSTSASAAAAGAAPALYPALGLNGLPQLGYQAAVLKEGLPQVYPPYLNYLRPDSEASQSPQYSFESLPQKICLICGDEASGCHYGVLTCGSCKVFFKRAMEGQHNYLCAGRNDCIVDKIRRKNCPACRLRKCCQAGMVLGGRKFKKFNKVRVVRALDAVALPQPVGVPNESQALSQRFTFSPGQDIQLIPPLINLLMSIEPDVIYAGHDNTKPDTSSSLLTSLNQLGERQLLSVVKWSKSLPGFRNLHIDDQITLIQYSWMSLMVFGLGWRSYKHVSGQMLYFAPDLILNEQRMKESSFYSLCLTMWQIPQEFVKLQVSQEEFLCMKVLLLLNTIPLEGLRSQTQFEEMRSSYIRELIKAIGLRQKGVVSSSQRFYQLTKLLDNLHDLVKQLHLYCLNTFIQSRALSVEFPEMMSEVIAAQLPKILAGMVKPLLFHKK
Experimental: Similar to previous reports, for induction 100 ng pHHLuc (MMTV-Luc) plasmid, 0.1 ng pRShGR together with 5 ng phRGtkRenilla were transfected by X-tremeGENE 9 (Roche) into AD293 cells per well in 24-well plate. For transrepression, 10 ng AP-1-Luc or 10ng pNF-κB-luc, 100 ng pRShGR and 5 ng phRGtkRenilla were transfected into AD293 cells per well. We used the same transfection protocol for the MR and PR assays, except of the use of 0.1 ng MR or PR plasmid to substitute GR. One day after transfection, for induction, cells were directly treated by steroids for 16 h; for repression, cells were treated with either PMA at 0.6 ng ml^–1 (for AP-1 reporter) or TNFα at 2 ng ml^–1 (for NF-κB reporter), together with various steroids. Cells were collected by addition of 1× Passive Lysis Buffer (Promega, Madison, WI, USA), and luciferase activity was assayed by the Dual-Glo Luciferase system (Promega). Data were plotted as firefly luciferase activity normalized to Renilla luciferase activity in Relative Luciferase Units.

[1] = Insulin-tolerance test and plasma insulin level; conditions: 7 days
Experimental: DBA/1 mice (Taconic) were weighted just before the experiment. After 4 h fasting, mice were i.p. injected with 0.75 U kg^–1 of insulin (Huamlin R). Blood samples were taken from the tail at time 0 (before insulin injection), 15, 30, 45, 60, 90 and 120 min after injection. Plasma glucose levels were measured using an AlphaTrak glucose meter. All data were plotted as percent of glucose level at time 0. Endogenous insulin levels were measured using the Ultra Sensitive Mouse Insulin ELISA kit (Crystal Chem, Downers Groove, IL, USA).

[2] = Body weight (growth inhibition) of DBA/1 mice; type: in vivo; conditions: 0.0625 mg kg^-1 daily, 2 weeks
Experimental: Figure 5 Examination of side effects of VSGC12 and FF at the effective dose. (a) Body weight of DBA/1 mice treated with the indicated daily dose of steroids for 2 weeks. Mice body weight was measured at day 0, 7 and 14. (b) Insulin-tolerance test of mice treated with the indicated daily doses of steroids for 7 days. Glucose level was measured at day 7 at various time points before and after insulin injection. Data were plotted as percent of the glucose level of time 0. (c) Plasma insulin levels of mice treated with the indicated daily doses of steroid for 7 days. (d) Spleen size and weight for mice treated with the indicated daily doses of steroid for 2 weeks. (e) Cortical bone thickness of femurs of mice treated with the indicated daily doses of steroid for 2 weeks. (f) Bone stiffness of femurs of mice treated with the indicated daily doses of steroid for 2 weeks. Mouse strain: DBA/1. Each treatment n=5, error bars indicate s.e.m., *P<0.05; **P<0.01; ***P<0.001.

OVA-induced asthma = experiment: OVA-induced mouse asthma model; type: in vivo, Balb/c mice; conditions: for % repression of AHR: ACH challenge 4 mg kg^-1
Experimental: As described before, 7–9-week-old female Balb/c mice (Taconic) were sensitized on days 0, 7 and 14 by i.p. injection of 50 μg OVA/1 mg alum in a total of 200 μl saline. Control mice received an equal volume of alum only. Mice were lightly anesthetized by isoflurane inhalation and challenged with intranasal OVA (100 μg in 30 μl saline) or saline on days 21–23, and were i.p. injected with different steroids. Twenty-four hours after the last challenge and treatment, pulmonary resistance was measured in response to a range of concentrations of intravenous acetylcholine using the forced oscillation technique with the FlexiVent system (SCIREQ) as previously described. Serum samples were analyzed for OVA-specific IgE using an ELISA (BD Biosciences, clone R35-118). Total and differential cell counts were determined by hemocytometer and by light microscopic evaluation of more than 300 cells per slide as previously described. After lavage, lungs were inflated with 10% buffered formalin to 25 cm H2O and transferred to 10% buffered formalin. Sections (5 μm) were stained with H&E for semi-quantitative assessment of inflammation and PAS for evaluation of mucus production. To quantify inflammation, H&E-stained lung sections were de-identified for blinding and scored for peribronchial and perivascular inflammatory cell infiltration: grade 0, no infiltration; grade 1, <25% of examined area; grade 2, 25–50%; grade 3, 51–75%; and grade 4, >75%. To quantify goblet cell hyperplasia, PAS stained lung sections were de-identified for blinding and scored for the percentage of PAS positive cells among airway epithelial cells: grade 0: none; grade 1 <25% of airway epithelial cells; grade 2, 25–50%; grade 3, 51–75%; and grade 4, >75%.

CON(C)C(=O)C1(OC(=O)c2ccco2)C(C)CC2C3CC(F)C4=Cc5c(cnn5-c5ccccc5)CC4(C)C3(F)C(O)CC21C (stereo not drawn) [VSGC12]
PR activity (PR): higher activity than VSG22, but a lower activity than MF, FF and FP | insulin resistance in insulin-tolerance test ([1]; 0.0625 mg kg^-1 daily): no longer induced insulin resistance | insulin resistance in insulin-tolerance test ([1]; 0.25 mg kg^-1 daily): still caused insulin resistance, the resistance was much less severe than for FF | growth inhibition (body weight) [2]: did not cause a significant growth inhibition | % repression of total differentiated cells (OVA-induced asthma; 0.0625 mg/kg): 37% | % repression of AHR (OVA-induced asthma; 0.0625 mg/kg): 50% | % repression of total differentiated cells (OVA-induced asthma; 0.125 mg/kg): 60% | histology score (hematoxylin and eosin and PAS staining) (OVA-induced asthma; 0.25 mg kg^-1): much lower score than 0.25 mg kg^–1 FF in both hematoxylin and eosin and PAS staining | % repression of total differentiated cells (OVA-induced asthma; 0.25 mg/kg): 88% | % repression of AHR (OVA-induced asthma; 0.25 mg/kg): > 95% and 95% | infiltration of immune responsive cells into the lungs (total and differential cell count) (OVA-induced asthma; 1 mg kg^-1 i.p.): strongly repressed the infiltration of immune responsive cells into the lungs | repression of airway hyper-responsiveness (AHR) (OVA-induced asthma; 1 mg kg^-1 i.p., Balb/c mice): robustly repressed AHR to the basal level | histology score, PAS staining (OVA-induced asthma; 1 mg kg^-1 i.p., grade 0-4): 0.25 | histology score, hematoxylin and eosin staining (OVA-induced asthma; 1 mg kg^-1 i.p., grade 0-4): almost zero | % repression of AHR (OVA-induced asthma; 1 mg/kg, OVA+DMSO 0, saline 100): 98% | % repression of total differentiated cells (OVA-induced asthma; 1 mg/kg, saline 100, OVA+DMSO 0): 99% | minimal dose to effectively repress AHR (minimal effective dose) (OVA-induced asthma; AHR repression >50%, i.p.): 0.0625 mg kg^–1 | OVA-IgE levels (OVA-induced asthma; lower doses (0.25, 0.125, 0.0625 mg kg^-1)): unexpectedly higher than the vehicle control
